Results reported in PMC12015262 (Nature Communications, 2025).
Like-named read-outs stand apart in the source and are kept apart here. Where a SMILES comes first, the peptide text is derived from it. Bridges are numbered along the chain shown (N, C = ends).

Assays:
[1] = Pharmacokinetic study, intravenous, male CD-1 mice; type: in vivo
[2] = target: T1, human recombinant ETAR (Homo sapiens, UniProt P25101); settings: competition binding
T1 sequence (P25101 21-427): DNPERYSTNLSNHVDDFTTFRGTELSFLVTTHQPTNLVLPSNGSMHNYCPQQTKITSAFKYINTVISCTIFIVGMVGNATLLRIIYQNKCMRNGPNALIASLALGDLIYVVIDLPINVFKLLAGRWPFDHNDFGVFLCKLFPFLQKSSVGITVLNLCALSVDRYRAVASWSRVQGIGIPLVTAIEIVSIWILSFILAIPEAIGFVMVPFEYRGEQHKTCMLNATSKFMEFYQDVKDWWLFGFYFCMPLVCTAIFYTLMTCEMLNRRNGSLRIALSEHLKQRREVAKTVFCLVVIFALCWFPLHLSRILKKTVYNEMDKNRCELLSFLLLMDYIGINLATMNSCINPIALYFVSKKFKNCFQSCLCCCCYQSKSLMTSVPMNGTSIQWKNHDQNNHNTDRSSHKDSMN

[3] = mouse, s9
[4] = human, s9
[5] = system: wild-type ETB; settings: previous study; cited from earlier work
[6] = target: T2, recombinant human ETB receptor (Homo sapiens, UniProt P24530); type: binding; settings: Discussion
T2 sequence (P24530 27-442): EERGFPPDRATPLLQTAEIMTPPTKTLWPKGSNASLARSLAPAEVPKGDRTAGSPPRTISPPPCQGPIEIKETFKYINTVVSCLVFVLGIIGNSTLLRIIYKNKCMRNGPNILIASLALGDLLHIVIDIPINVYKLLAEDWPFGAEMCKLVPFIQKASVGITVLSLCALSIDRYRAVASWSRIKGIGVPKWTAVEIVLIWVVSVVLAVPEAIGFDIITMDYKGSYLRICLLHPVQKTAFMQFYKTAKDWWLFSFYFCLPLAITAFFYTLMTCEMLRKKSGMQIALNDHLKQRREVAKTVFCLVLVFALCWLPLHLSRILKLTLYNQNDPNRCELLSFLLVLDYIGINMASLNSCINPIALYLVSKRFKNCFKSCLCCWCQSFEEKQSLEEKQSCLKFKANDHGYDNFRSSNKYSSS

[7] = target: human endothelin type B receptor (ETB), in membranes of CHO cells (human) (UniProt P24530); assay: radioligand binding

Molecule: C[C@@H](O)[C@@H]1NC(=O)CNC(=O)[C@H](Cc2c[nH]cn2)NC(=O)[C@H](Cc2c[nH]c3ccccc23)NC(=O)[C@H](CC(N)=O)NC(=O)CNC(=O)C[C@@H](C(=O)N[C@@H](Cc2c[nH]c3ccccc23)C(=O)N[C@@H](Cc2ccccc2)C(=O)N[C@@H](Cc2ccccc2)C(=O)N[C@@H](CC(N)=O)C(=O)N[C@@H](Cc2ccc(O)cc2)C(=O)N[C@@H](Cc2ccc(O)cc2)C(=O)N[C@@H](Cc2c[nH]c3ccccc23)C(=O)O)NC(=O)[C@@H]2CCCN2C(=O)[C@H](CO)NC1=O [RES-701-3] (GNWHGTSPDWFFNYYW-OH; lactam N-9 (inferred))
- half-life ([1]; mouse, in vivo, iv, 3 mg/kg, t1/2, 3 mg/kg IV, male CD-1 mice): > 6 h
- activity against ETA [2]: no activity
- half-life [3]: > 6 h
- half-life [4]: > 6 h

Molecule: COc1ccccc1Oc1c(NS(=O)(=O)c2ccc(C(C)(C)C)cc2)nc(-c2ncccn2)nc1OCCO [Bosentan]
- effect on receptor activation level of wild-type ETB [5]: does not change the receptor activation level

Molecule: Cc1cc(C)cc(C(=O)N(C)[C@H](Cc2ccc(-c3ccccc3)cc2)C(=O)N[C@@H](Cc2c[nH]c3ccccc23)C(=O)O)c1 [IRL2500]
- selectivity for ETB (ETB/ETA) [6]: 50 ×

Molecule: RES-701-3 T6E (peptide)
- fold reduction of affinity against RES-701-3 [7]: 50 fold

Molecule: CCCC[C@@H](NC(=O)[C@@H](Cc1cn(C(=O)OC)c2ccccc12)NC(=O)[C@H](CC(C)(C)C)NC(=O)N1[C@H](C)CCC[C@@H]1C)C(=O)O [BQ-788, Dmpc-γ-MeLeul-D-Trp(1-CO2CH3)-D-Nle-OH, reference compound]
- half-life compared with RES-701-3 ([1]; same experiment, IV, mice): nearly tenfold lower half-life
